Here are results for nine compounds from paper PMC5001167 (Journal of medicinal chemistry, 2016).

Entries after “also recorded” stand apart in the source; their conditions may differ.

Series [1] concerns C57BL/6J mice. Briefly: Locomotor activity, basal and oxycodone-induced, open-field chambers.
Series [2] concerns the target mu opioid receptor (Homo sapiens, UniProt P35372). As to the kind of experiment: Opioid receptor binding at 10 μM. The settings on record: at a concentration of 10 μM.
Series [3] deals with Long-Evans rats. Briefly: Oxycodone-induced conditioned place preference. It is filed as in vivo, rat.
In series [4] the target is kappa opioid receptor (Homo sapiens, UniProt P41145). As to the kind of experiment: Opioid receptor binding at 10 μM. The settings on record: at a concentration of 10 μM.
kappa opioid receptor, sequence (P41145 whole entry): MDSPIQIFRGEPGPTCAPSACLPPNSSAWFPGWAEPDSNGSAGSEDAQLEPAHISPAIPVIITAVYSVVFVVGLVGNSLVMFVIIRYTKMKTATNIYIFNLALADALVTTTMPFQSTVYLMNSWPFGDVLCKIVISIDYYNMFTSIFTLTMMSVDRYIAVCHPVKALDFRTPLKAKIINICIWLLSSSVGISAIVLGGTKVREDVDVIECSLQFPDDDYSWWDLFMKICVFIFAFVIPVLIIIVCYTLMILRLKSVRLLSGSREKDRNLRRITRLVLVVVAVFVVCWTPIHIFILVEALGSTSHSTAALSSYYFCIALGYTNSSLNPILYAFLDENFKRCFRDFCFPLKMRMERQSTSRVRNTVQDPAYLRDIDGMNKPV
Series [5] concerns the target delta opioid receptor (Homo sapiens, UniProt P41143). Briefly: Opioid receptor binding at 10 μM. The settings on record: at a concentration of 10 μM.
Series [6] addresses T1, 5HT1A (Homo sapiens, UniProt P08908).
T1 sequence (P08908 1-422): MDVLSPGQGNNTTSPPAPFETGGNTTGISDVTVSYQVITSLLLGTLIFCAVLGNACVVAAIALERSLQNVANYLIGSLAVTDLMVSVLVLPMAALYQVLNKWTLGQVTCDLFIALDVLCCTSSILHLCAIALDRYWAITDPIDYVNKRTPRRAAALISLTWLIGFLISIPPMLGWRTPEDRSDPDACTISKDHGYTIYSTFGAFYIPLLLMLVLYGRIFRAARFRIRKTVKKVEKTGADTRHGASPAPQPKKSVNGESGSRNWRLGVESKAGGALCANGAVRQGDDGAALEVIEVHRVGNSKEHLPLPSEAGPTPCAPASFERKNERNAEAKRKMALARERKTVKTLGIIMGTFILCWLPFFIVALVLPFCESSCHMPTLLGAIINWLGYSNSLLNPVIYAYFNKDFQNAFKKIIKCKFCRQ
Briefly: 5HT1A [35S]GTPγS binding functional assay. It is filed as biochemical.

The target in series [7] is D2R. The settings on record: read-out: D2R Ki; eticlopride; cited from earlier work.
In series [8] the test system is dogs. The settings on record: cited from earlier work.
For series [9] the following is noted: cited from earlier work.
Series [10] addresses human D2LR (Homo sapiens, UniProt P14416). It counts as binding. The settings on record: read-out: D2LR Ki ± S.E.M.; full-length analogues, Table 2; HEK 293.
In series [11] the target is T2, human D4.4R (Homo sapiens, UniProt P21917).
T2 sequence (P21917 1-419): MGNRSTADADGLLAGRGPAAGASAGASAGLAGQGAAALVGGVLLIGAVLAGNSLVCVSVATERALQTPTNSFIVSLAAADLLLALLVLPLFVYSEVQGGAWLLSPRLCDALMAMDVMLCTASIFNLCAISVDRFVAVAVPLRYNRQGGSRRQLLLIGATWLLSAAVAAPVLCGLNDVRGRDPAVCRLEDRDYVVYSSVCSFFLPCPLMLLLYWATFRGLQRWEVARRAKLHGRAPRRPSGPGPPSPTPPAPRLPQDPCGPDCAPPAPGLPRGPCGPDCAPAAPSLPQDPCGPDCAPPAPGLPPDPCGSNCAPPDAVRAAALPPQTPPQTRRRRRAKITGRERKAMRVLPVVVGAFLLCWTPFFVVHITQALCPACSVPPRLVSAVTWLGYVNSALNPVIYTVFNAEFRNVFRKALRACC
It is filed as binding. The settings on record: read-out: D4.4R Ki ± S.E.M.; full-length analogues, Table 2; HEK 293.

The target of series [12] is human D3R (Homo sapiens, UniProt P35462). It is filed as binding. The settings on record: Table 2.
human D3R, sequence (P35462 whole entry): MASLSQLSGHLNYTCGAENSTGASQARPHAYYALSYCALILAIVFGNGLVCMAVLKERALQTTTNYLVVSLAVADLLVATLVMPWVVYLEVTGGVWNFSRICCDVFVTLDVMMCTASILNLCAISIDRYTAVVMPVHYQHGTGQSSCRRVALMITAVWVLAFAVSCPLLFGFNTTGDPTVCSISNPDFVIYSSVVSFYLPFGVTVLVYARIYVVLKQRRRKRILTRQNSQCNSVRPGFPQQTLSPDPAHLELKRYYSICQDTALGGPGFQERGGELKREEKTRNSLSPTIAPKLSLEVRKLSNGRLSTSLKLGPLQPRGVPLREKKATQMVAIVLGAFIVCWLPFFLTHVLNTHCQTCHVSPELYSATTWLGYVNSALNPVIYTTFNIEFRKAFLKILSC

human D2LR, sequence (P14416 whole entry): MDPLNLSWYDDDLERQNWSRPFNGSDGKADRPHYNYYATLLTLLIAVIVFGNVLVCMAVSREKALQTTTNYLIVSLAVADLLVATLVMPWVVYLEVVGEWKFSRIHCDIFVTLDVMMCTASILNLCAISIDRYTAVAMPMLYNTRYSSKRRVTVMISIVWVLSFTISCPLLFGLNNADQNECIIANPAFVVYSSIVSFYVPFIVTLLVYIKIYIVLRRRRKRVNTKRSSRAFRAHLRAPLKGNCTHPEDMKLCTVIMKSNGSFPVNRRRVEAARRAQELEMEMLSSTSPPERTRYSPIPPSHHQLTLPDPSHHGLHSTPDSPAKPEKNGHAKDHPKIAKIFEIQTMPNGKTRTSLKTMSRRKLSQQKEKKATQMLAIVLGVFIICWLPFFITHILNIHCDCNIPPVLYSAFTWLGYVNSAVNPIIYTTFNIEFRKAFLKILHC
delta opioid receptor, sequence (P41143 whole entry): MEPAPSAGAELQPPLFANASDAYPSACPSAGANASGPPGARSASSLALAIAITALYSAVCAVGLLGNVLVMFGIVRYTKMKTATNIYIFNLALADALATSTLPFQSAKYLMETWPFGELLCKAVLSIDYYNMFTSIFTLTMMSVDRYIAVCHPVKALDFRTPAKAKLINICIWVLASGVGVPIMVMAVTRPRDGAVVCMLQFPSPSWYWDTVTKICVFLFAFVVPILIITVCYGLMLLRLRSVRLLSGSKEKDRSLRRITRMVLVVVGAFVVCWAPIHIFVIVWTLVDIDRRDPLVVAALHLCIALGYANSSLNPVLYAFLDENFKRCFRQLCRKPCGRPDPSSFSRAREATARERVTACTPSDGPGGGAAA
mu opioid receptor, sequence (P35372 whole entry): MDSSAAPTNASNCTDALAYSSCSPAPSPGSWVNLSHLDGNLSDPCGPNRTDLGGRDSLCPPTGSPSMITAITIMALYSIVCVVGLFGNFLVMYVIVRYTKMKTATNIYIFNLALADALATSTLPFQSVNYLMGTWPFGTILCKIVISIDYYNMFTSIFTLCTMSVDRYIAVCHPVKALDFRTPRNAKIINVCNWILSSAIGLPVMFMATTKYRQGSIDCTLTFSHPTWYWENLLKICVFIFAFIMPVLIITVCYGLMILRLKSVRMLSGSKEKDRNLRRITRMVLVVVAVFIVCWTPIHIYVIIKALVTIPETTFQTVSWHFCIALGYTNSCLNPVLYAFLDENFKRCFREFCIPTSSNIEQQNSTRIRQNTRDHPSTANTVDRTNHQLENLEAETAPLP

With `CCc1cc(Cl)c(OC)c(N2CCN(CC(O)CCNC(=O)c3cc4ccccc4[nH]3)CC2)c1` (stereo not shown) [Compound 19, N-(4-(4-(3-Chloro-5-ethyl-2-methoxyphenyl)piperazin-1-yl)-3-hydroxybutyl)-1H-indole-2-carboxamide], in series [1] (mice, 5, 15 mg/kg i.p. 15 min before oxycodone 4 mg/kg, day 2), the “effect on acute oxycodone-induced hyperactivity” value was “attenuated; also recorded: dose-dependently inhibited”. Besides, in [1] (mice, 5, 15 mg/kg i.p. alone, day 1), the “effect on basal locomotor activity” value is “no effect on locomotion”. Also, in series [1] (mice, 5, 15 mg/kg i.p. daily before oxycodone 4 mg/kg, day 2-day 6), the “effect on acquisition of repeated oxycodone-induced locomotor sensitization” value was “dose-dependently blocked”. For the same compound, in series [1] (mice, day 9, oxycodone 4 mg/kg challenge without pretreatment), the “effect on expression of oxycodone prime-induced locomotor sensitization after 2 days of withdrawal” value is reported as “blocked; also recorded: long-lasting inhibition”. Also, the “binding to mu opioid receptor” value in series [2] is recorded as “does not bind”. The “effect on oxycodone-induced CPP at 15 mg/kg” value in series [3] (rats, 15 mg/kg i.p., p<0.05 compared to (Vehicle + oxycodone) group) is “significant reduction”. Moreover, in [3] (rats, 15 mg/kg i.p., paired with saline, 15 mg/kg), the “CPP produced by compound alone” value is listed as “did not produce CPP; also recorded: did not produce significant place preference”. The “effect on oxycodone-induced CPP” value in series [3] (rats, 5, 15 mg/kg i.p. 15 min before each oxycodone injection (3 mg/kg i.p.)) is listed as “dose-dependently attenuated; also recorded: dose-dependently blocked”. In series [4], the “binding to kappa opioid receptor” value is recorded as “does not bind”. In series [5], the “binding to delta opioid receptor” value is on record as “does not bind”.

As for `CCc1cccc(N2CCN(CCCCNC(=O)c3cc4ccccc4[nH]3)CC2)c1Cl` [Compound 22, N-(4-(4-(2-Chloro-3-ethylphenyl)piperazin-1-yl)butyl)-1H-indole-2-carboxamide], the “functional profile at 5HT1A” value in [6] is “functional agonists”.

On to `CCc1cccc(N2CCN(CCCCNC(=O)c3cc4ccccc4o3)CC2)c1Cl` [Compound 24, N-(4-(4-(2-Chloro-3-ethylphenyl)piperazin-1-yl)butyl)benzofuran-2-carboxamide], for which, in [6], the “functional profile at 5HT1A” value is “functional agonists”.

With `CCc1cccc(N2CCN(CC(O)CCNC(=O)c3cc4ccccc4o3)CC2)c1Cl` (stereo not shown) [Compound 25, N-(4-(4-(2-Chloro-3-ethylphenyl)piperazin-1-yl)-3-hydroxybutyl)benzofuran-2-carboxamide], the “functional profile at 5HT1A” value in series [6] is recorded as “functional agonists”.

One may read the Ki as a dissociation constant, usually derived from enzyme kinetics or from competition with a known ligand. On to `CCc1cc(Cl)c(OC)c(C(=O)NC[C@@H]2CCCN2CC)c1O` [Eticlopride], for which the Ki in series [7] is 0.086 nM.

Turning to `Cc1ncoc1-c1nnc(SCCCN2C[C@@H]3C[C@]3(c3ccc(C(F)(F)F)cc3F)C2)n1C` [GSK598,809], in [8], the “blood pressure effect in the presence of cocaine” value is recorded as “significant hypertension”.

In the case of `O=C(NCC[C@@H](O)CN1CCN(c2cccc(Cl)c2Cl)CC1)c1cc2ccccc2[nH]1` [R-PG648], in [9], the metabolic stability result is “metabolic instability”.

Consider `COc1ccc2c3c1O[C@H]1C(=O)CC[C@@]4(O)[C@@H](C2)N(C)CC[C@]314` [oxycodone, reference compound], for which the “effect of oxycodone on locomotor activity” value in series [1] (mice, oxycodone 4 mg/kg i.p.) is “significant increases in locomotor activity”. In series [3] (rats, oxycodone 3 mg/kg i.p. versus saline conditioning), the “CPP produced by oxycodone” value is listed as “produced significant CPP”.

“N-(4-(4-(2-Chloro-3-ethylphenyl)piperazin-1-yl)butyl)-6-methylimidazo[2,1-b]thiazole-5-carboxamide [Compound 28]”: the Ki was 4.65 ± 1.24 nM in [10]; 143 ± 3.18 nM in [11]; 0.941 ± 0.13 nM in [12] (read-out: D3R Ki ± S.E.M., full-length analogues, HEK 293). The D2R/D3R in [12] (binding selectivity, ratio of Ki values (fold)) came to 5.
